Assay results from PubChem BioAssay (NCI).
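Tested at 5 concentrations; 48 h exposure; 96-well plates; endpoints linearly interpolated, else capped at highest concentration. Here, GI50 denotes the concentration required for 50% inhibition of growth. TGI is the concentration that stops growth completely.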

How the values were obtained:
Test in all cases: NCI anticancer screen, dose series, 48 h
[1] = tested on: SF-295 CNS
[2] = tested on: SK-MEL-28 melanoma
[3] = tested on: SK-OV-3 ovarian
[4] = tested on: MCF7 breast
[5] = tested on: MALME-3M melanoma
[6] = tested on: MDA-MB-231 breast
[7] = tested on: T-47D breast
[8] = tested on: CCRF-CEM leukemia
[9] = tested on: MDA-MB-435
[10] = tested on: SR leukemia

| SMILES | TGI [1] [µM] | TGI [2] [µM] | TGI [3] [µM] | TGI [4] [µM] | TGI [5] [µM] | TGI [6] [µM] | TGI [7] [µM] | TGI [8] [µM] | TGI [9] [µM] | GI50 [4] [µM] | TGI [10] [µM] | GI50 [1] [µM] | GI50 [2] [µM] | GI50 [10] [µM] | GI50 [3] [µM] | GI50 [6] [µM] | GI50 [7] [µM] | GI50 [8] [µM] | GI50 [9] [µM] |
| --- | --- | --- | --- | --- | --- | --- | --- | --- | --- | --- | --- | --- | --- | --- | --- | --- | --- | --- | --- |
| CC1CC/C(=C\c2ccc(F)cc2)C(=O)/C1=C/c1ccc(F)cc1 (stereo not drawn) | 7.38 | 37 | 36.7 | 16.6 | 32.8 | 6.56 | 21 | 14.5 | 28.4 | – | – | – | – | – | – | – | – | – | – |
| C=C(NC(=O)C(=C)NC(=O)c1csc(C2=NC3c4csc(n4)C4NC(=O)c5csc(n5)C(C(C)(O)C(C)O)NC(=O)C5CSC(=N5)/C(=C/C)NC(=O)C(C(C)O)NC(=O)c5csc(n5)C3(CC2)NC(=O)C(C)NC(=O)C(=C)NC(=O)C(C)NC(=O)C(C(C)CC)NC2C=Cc3c(C(C)O)cc(nc3C2O)C(=O)OC4C)n1)C(N)=O (stereo not drawn) | 12.8 | 3.71 | > 67.8 | > 100 | 3.99 | – | – | 3.49 | – | 6.27 | – | – | – | – | – | – | – | – | – |
| O=C(O)c1ccc(C2=Cc3cc(Cl)ccc3OC2)cc1 | > 100 | > 100 | > 100 | – | > 100 | – | – | > 100 | – | – | > 100 | – | – | – | – | – | – | – | – |
| Cn1cc(-c2ccc3cc(-c4ccc(CC(=O)Nc5cc(C(C)(C)C)on5)cc4)cnc3c2)cn1 | 6.74 | 5.25 | > 100 | 17.8 | – | 12.2 | > 100 | > 100 | 3.54 | 1.92 | > 100 | 1.65 | 1.95 | 3.07 | 0.657 | 2.26 | 2.68 | 2.17 | 1.43 |
| NC1=Nc2cc(Cl)ccc2Sc2nc3ccccc3n21 | > 100 | > 100 | > 100 | > 100 | > 100 | > 100 | > 100 | 19.4 | > 100 | – | – | – | – | – | – | – | – | – | – |
| C=C1C(=O)O[C@@H]2[C@H](O)[C@@H](C)[C@@H]3C=CC(=O)[C@@]3(C)[C@@H](OC(=O)/C(C)=C/C)[C@H]12 | 8.34 | 1.34 | 14.1 | 5.15 | 1.49 | – | – | 2.05 | – | – | – | – | – | – | – | – | – | – | – |
| CCOC(=O)C(Cc1c[nH]c2cc([N+](=O)[O-])ccc12)NS(=O)(=O)c1ccc2ccccc2c1 (stereo not drawn) | 32.5 | 32.1 | 68.6 | – | – | – | – | 49.1 | – | – | 68.2 | – | – | – | – | – | – | – | – |
| Nc1[nH]nc2nc3ccccc3nc12 | > 100 | > 100 | > 100 | > 100 | > 100 | > 100 | – | > 100 | > 100 | – | 75.2 | – | – | – | – | – | – | – | – |
| NC(CSSCC(N)=NCC12CC3CC(CC(C3)C1)C2)=NCC12CC3CC(CC(C3)C1)C2 | 31.3 | 44.4 | 36.5 | > 100 | 33.6 | 16.2 | > 100 | – | 28.1 | – | – | – | – | – | – | – | – | – | – |
| CC1(C)CCC(C)(C)C1C(=O)NC(O)C(=O)O (stereo not drawn) | – | > 100 | > 100 | > 100 | – | > 100 | > 100 | > 100 | > 100 | – | > 100 | – | – | – | – | – | – | – | – |
| CC(C)(C)OC(=O)CN1CCNCCN(CC(=O)OC(C)(C)C)CCNCC1 | > 100 | > 100 | > 100 | > 100 | – | > 100 | – | > 100 | > 100 | – | > 100 | – | – | – | – | – | – | – | – |
| N=c1c2c(=S)n(-c3ccccc3)c(=S)n(-c3ccccc3)c2nc(SCCN2CCCC2)n1-c1ccccc1 | 32.9 | > 38.7 | 25.3 | – | 3.87 | 3.52 | 8.44 | 1.25 | 3.82 | – | – | – | – | – | – | – | – | – | – |
| O=C1CC(c2ccccc2)=Nc2ccccc2N1 | > 100 | > 100 | > 100 | – | > 100 | – | – | > 100 | – | – | > 100 | – | – | – | – | – | – | – | – |
| O=C(CSc1nc(-c2ccccc2)c(-c2ccccc2)[nH]1)N/N=C/c1ccc(O)cc1 | 57.4 | > 100 | 65.2 | – | 52.5 | – | – | > 100 | – | – | > 100 | – | – | – | – | – | – | – | – |
| O=C(CCC=C(S(=O)(=O)c1ccccc1)S(=O)(=O)c1ccccc1)c1ccccc1 | 60.9 | 34.6 | > 100 | 17.1 | 17.9 | 22.9 | 44.4 | – | 24.3 | – | 82.6 | – | – | – | – | – | – | – | – |
| NC1=NS(=O)(=O)Nc2nc(-c3ccccc3)[nH]c21 | > 100 | > 100 | > 100 | – | > 100 | – | – | > 100 | – | – | > 100 | – | – | – | – | – | – | – | – |
| CC(=O)Nc1ccc2[nH]c(C(=O)N3CC(CCl)c4c3cc([N+](=O)[O-])c3ccccc43)cc2c1 (stereo not drawn) | > 100 | > 100 | > 65.1 | > 100 | – | > 100 | 9.92 | 29 | > 100 | – | 5.83 | – | – | – | – | – | – | – | – |
| Cc1ccc(C2=C(C#N)C(N)OC3=C2COc2ccccc23)cc1 (stereo not drawn) | – | > 100 | 67.9 | > 100 | 82.1 | > 100 | – | 76 | > 100 | – | > 100 | – | – | – | – | – | – | – | – |
| O=[N+]([O-])C(/C=N/Nc1ccccc1)/C=N/Nc1ccccc1 | > 100 | > 100 | > 100 | – | > 100 | – | – | > 100 | – | – | – | – | – | – | – | – | – | – | – |
| C=C(C)COC1CCCCO1 (stereo not drawn) | > 100 | > 100 | > 100 | > 100 | > 100 | > 100 | > 100 | > 100 | > 100 | – | – | – | – | – | – | – | – | – | – |
| O=C(NC(=O)c1cc(-c2ccccc2)n[nH]1)c1ccccc1 | > 100 | > 100 | > 100 | > 100 | – | > 100 | > 100 | > 100 | > 100 | – | 79.2 | – | – | – | – | – | – | – | – |
| c1csc(-c2ccsc2-c2cccs2)c1 | > 100 | – | > 100 | > 100 | – | – | > 100 | > 100 | 53.7 | – | 21.3 | – | – | – | – | – | – | – | – |
| O=C(/C=C/c1cccc(Oc2ccccc2)c1)NCc1ccc(C(=O)NCCc2ccccc2)cc1 | > 100 | > 100 | > 100 | > 100 | > 100 | > 100 | > 100 | – | > 100 | – | > 100 | – | – | – | – | – | – | – | – |
| COC(=O)c1c(C#N)c(N)nc2c1CCC2 | > 100 | > 100 | > 100 | > 100 | > 100 | > 100 | > 100 | > 100 | > 100 | – | – | – | – | – | – | – | – | – | – |
